Measurements published in patent US10233463B2, “Neurotensin-induced tumor formation is regulated by micro RNA 133A-aftiphilin-dependent receptor recycling” (THE REGENTS OF THE UNIVERSITY OF CALIFORNIA, priority 2013, dated 2019).

Columns and labels:
SW480 cells = assay: Anchorage-independent growth assay with Brefeldin A in the presence of NT; assay type: cell-based, human
Protocol: Anchorage-independent growth assays. […] HCT-116 and SW480 cells were transfected with miR-133α or si-AFTPH 2 days prior to the assay. In addition, SW480 cells were treated with 2.5, 5, 10 μg/ml brefeldin A in the presence of 100 nM NT. Triplicates of 5,000 cells were suspended in complete growth media supplemented with 0.4% agarose [mixing 2% agarose with complete growth media in 1:4 (v/v)). Cell mixtures were layered on 0.8% agarose and fed with complete growth media supplemented with 0.4% agarose every 6-7 days. The number of colonies was counted after 15 days. Experiments were repeated 3 times. Statistical significance was calculated using the Student's t-Test.

NCM460-NTR1 cells = assay: NTR1 localization and recycling by immunofluorescence; assay type: cell-based, human; conditions: 10 nM Brefeldin A during recovery
Protocol: Immunofluorescence. NCM460-NTR1 cells were transfected with antisense miR-133α (as-miR-133α) (Ambion) and its control using siPORTNeoFX transfection reagent (Applied Biosystems) or siRNA against AFTPH and its control (Santa Cruz) using Lipofectamine™ RNAiMAX (Invitrogen) where appropriate. […] Cells were fixed in PBS containing 4% (w/v) paraformeldehyde (pH 7.4, 20 min, 4° C.) and blocked in PBS containing 3% bovine serum and 0.1% Triton X. Cells were incubated (16 h, 4° C.) with the following antibodies (Santa Cruz): goat anti-NTR1 (1:100), goat anti-AFTPH (1:100) and rabbit anti-TGN38 (1:100). Cells were washed and incubated (2 h, room temperature) with bovine anti-goat IgG or bovine-anti-rabbit IgG conjugated to FITC or Texas Red (Santa Cruz, 1:500). […]
Image analysis protocol. Substacks of five optical sections were generated per image and were analyzed using Images J with MacBiophotonics plugins. […] Mean fluorescence intensity was measured for these two regions, representing the intracellular and cell surface associated NTR1 labeling, respectively. The relative surface and intracellular values were expressed as a ratio. […] Only cells with a defined nucleus were analyzed and only within cell comparisons were made. […]

What does the source list for `C[C@H]1CCC/C=C/[C@@H]2C[C@H](O)C[C@H]2[C@H](O)/C=C/C(=O)O1` [Brefeldin A]?
SW480 cell growth (colony formation) (SW480 cells; 2.5, 5, 10 μg/ml): inhibited; reduction of NT-induced tumor colony formation (SW480 cells; NT 100 nM): 44.1±1.1%; membrane-associated NTR1 vs total cellular receptors (NCM460-NTR1 cells; 3 h after NT stimulation): 57.0±2.95%; membrane-associated NTR1 vs total cellular receptors (NCM460-NTR1 cells; 6 h after NT stimulation): 52.1±2.89%
